Results published in ChEMBL document CHEMBL1201862, “PubChem BioAssay data set” (2004).
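Protocol summary: plate cells (96-well), add compound at 5 concentrations, incubate 48 h, interpolate endpoints linearly. GI50 is the concentration that inhibits growth by half.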 Activity calls are given as the source filed them. No stated cut-off is given here; in the data, active = GI50 up to about 1.1 µM and inactive = higher.

Key:
Assay in all cases: NCI-60 cell line screen, 48 h
MOLT-4 = test system: MOLT-4
NCI/ADR-RES = test system: NCI/ADR-RES
HCT-15 = test system: HCT-15
SK-MEL-28 = test system: SK-MEL-28
SR = test system: SR
SNB-75 = test system: SNB-75
OVCAR-4 = test system: OVCAR-4
UO-31 = test system: UO-31
MDA-N = test system: MDA-N
RXF 393 = test system: RXF 393
TK-10 = test system: TK-10
786-0 = test system: 786-0
HT-29 = test system: HT-29
NCI-H522 = test system: NCI-H522
SN12C = test system: SN12C
SK-MEL-5 = test system: SK-MEL-5
HOP-92 = test system: HOP-92
CAKI-1 = test system: CAKI-1
A549 = test system: A549
K562 = test system: K562

Row | Compound | GI50 (MOLT-4) | GI50 (NCI/ADR-RES) | GI50 (HCT-15) [µM] | GI50 (SK-MEL-28) | GI50 (SR) | GI50 (SNB-75) | GI50 (OVCAR-4) | GI50 (UO-31) | GI50 (MDA-N) | GI50 (RXF 393) | GI50 (TK-10) | GI50 (786-0) | GI50 (HT-29) | GI50 (NCI-H522) | GI50 (SN12C) | GI50 (SK-MEL-5) | GI50 (HOP-92) | GI50 (CAKI-1) | GI50 (A549) | GI50 (K562)
1 | CCOC(=O)c1ccc(NC(=O)Oc2ccc3c(C)cc(=O)oc3c2)cc1 | 22.5 µM (inactive) | 37 µM (inactive) | 33.7 | 34.9 µM (inactive) | 24.2 µM (inactive) | 32 µM (inactive) | 50.1 µM (inactive) | 33.1 µM (inactive) | 32.1 µM (inactive) | 58.6 µM (inactive) | > 100 µM (inactive) | 45.6 µM (inactive) | 32.7 µM (inactive) | 18.7 µM (inactive) | 33.1 µM (inactive) | 14.7 µM (inactive) | 23.7 µM (inactive) | 36.1 µM (inactive) | 43.7 µM (inactive) | 24.3 µM (inactive)
2 | O=C(Nc1ccccc1)c1cc2ccccc2c(/N=N\c2cccc([N+](=O)[O-])c2)c1O | > 100 µM (inactive) | > 100 µM (inactive) | > 100 | 94.4 µM (inactive) | 38.2 µM (inactive) | 33.5 µM (inactive) | 97.5 µM (inactive) | > 100 µM (inactive) | > 100 µM (inactive) | 47.8 µM (inactive) | > 100 µM (inactive) | 31.3 µM (inactive) | > 100 µM (inactive) | 5.56 µM (inactive) | > 100 µM (inactive) | > 100 µM (inactive) | > 100 µM (inactive) | > 100 µM (inactive) | > 100 µM (inactive) | 89.3 µM (inactive)
3 | O=C1Oc2ccccc2C(=O)/C1=C\Nc1nc(-c2ccc(O)c(O)c2)cs1 | 0.447 µM (active) | 4.46 µM (inactive) | 3.39 | 9.12 µM (inactive) | 1.19 µM (inactive) | 5.56 µM (inactive) | 10.7 µM (inactive) | 2.79 µM (inactive) | 4.98 µM (inactive) | 6.03 µM (inactive) | 3.26 µM (inactive) | 2.54 µM (inactive) | 4.63 µM (inactive) | 2.05 µM (inactive) | 4.79 µM (inactive) | 4.8 µM (inactive) | 13.5 µM (inactive) | 4.63 µM (inactive) | 6.67 µM (inactive) | 1.36 µM (inactive)
4 | CCOc1c2c(cc3c1C(=O)c1c(OC)cccc1C3=O)C=C(OC)CC2 | 8.71 µM (inactive) | 23.2 µM (inactive) | 11.9 | > 25 µM (inactive) | 7.45 µM (inactive) | 8.28 µM (inactive) | > 25 µM (inactive) | 10.9 µM (inactive) | 6.49 µM (inactive) | 12 µM (inactive) | > 25 µM (inactive) | > 25 µM (inactive) | 10.3 µM (inactive) | 10.4 µM (inactive) | > 25 µM (inactive) | 10.1 µM (inactive) | > 25 µM (inactive) | > 25 µM (inactive) | 13.5 µM (inactive) | 6.87 µM (inactive)
5 | COc1ccc2c(c1)CCc1c-2n(CCN2CCOCC2)c2ccc(OC)cc12 | 12.5 µM (inactive) | > 100 µM (inactive) | 41 | > 100 µM (inactive) | 10.5 µM (inactive) | 0.0515 µM (active) | > 100 µM (inactive) | > 100 µM (inactive) | 94.2 µM (inactive) | > 100 µM (inactive) | > 100 µM (inactive) | 82.8 µM (inactive) | 16.1 µM (inactive) | > 100 µM (inactive) | > 100 µM (inactive) | 54.7 µM (inactive) | > 100 µM (inactive) | > 100 µM (inactive) | 60.3 µM (inactive) | 14.8 µM (inactive)
6 | OC1c2ccccc2[C@@H]2[C@H]1[C@@H](c1ccccc1)C1(Cc3ccccc3C1O)[C@H]2c1ccccc1 (stereo not given in full) | 2.45 µM (inactive) | 5.36 µM (inactive) | 4.07 | 9.55 µM (inactive) | 1.11 µM (active) | 7.73 µM (inactive) | 4.04 µM (inactive) | 7.52 µM (inactive) | 3.85 µM (inactive) | 2 µM (inactive) | 16.1 µM (inactive) | 2.96 µM (inactive) | 2.29 µM (inactive) | 3.03 µM (inactive) | 1.77 µM (inactive) | 6.21 µM (inactive) | 3.35 µM (inactive) | 8.09 µM (inactive) | 3.86 µM (inactive) | 3.02 µM (inactive)
7 | CCCCCn1c(=O)c2c(=O)[nH][nH]c2c2ccccc21 | > 100 µM (inactive) | > 100 µM (inactive) | > 100 | > 100 µM (inactive) | > 100 µM (inactive) | > 100 µM (inactive) | > 100 µM (inactive) | > 100 µM (inactive) | > 100 µM (inactive) | > 100 µM (inactive) | > 100 µM (inactive) | > 100 µM (inactive) | > 100 µM (inactive) | > 100 µM (inactive) | > 100 µM (inactive) | > 100 µM (inactive) | > 100 µM (inactive) | > 100 µM (inactive) | > 100 µM (inactive) | > 100 µM (inactive)
8 | CC1CCC2N(C1)CC1C3(O)CC45OC6(O)C(O)CCC4(C)C6CCC5C3(O)CC(O)C1(O)C2(C)O (stereo not given) | > 100 µM (inactive) | > 100 µM (inactive) | > 100 | > 100 µM (inactive) | > 100 µM (inactive) | > 100 µM (inactive) | > 100 µM (inactive) | > 100 µM (inactive) | > 100 µM (inactive) | > 100 µM (inactive) | > 100 µM (inactive) | > 100 µM (inactive) | > 100 µM (inactive) | > 100 µM (inactive) | > 100 µM (inactive) | > 100 µM (inactive) | > 100 µM (inactive) | > 100 µM (inactive) | > 100 µM (inactive) | > 100 µM (inactive)
9 | COC(=O)C1=CC(=O)OC1(OO)c1ccc(Br)cc1 (stereo not given) | 31.8 µM (inactive) | > 100 µM (inactive) | 46.5 | > 100 µM (inactive) | 55.8 µM (inactive) | > 100 µM (inactive) | > 100 µM (inactive) | > 100 µM (inactive) | > 100 µM (inactive) | > 100 µM (inactive) | > 100 µM (inactive) | 65.2 µM (inactive) | 57.4 µM (inactive) | > 100 µM (inactive) | > 100 µM (inactive) | > 100 µM (inactive) | > 100 µM (inactive) | > 100 µM (inactive) | > 100 µM (inactive) | 33.7 µM (inactive)
